{
  "source": "patent US12447135B2",
  "about": "(University of South Florida, priority 2021, dated 2025)",
  "key": {"[1]": {"system": "C. elegans overexpressing human Aβ", "assay": "Aβ accumulation in C. elegans (thioflavin S staining, western blot)", "format": "in vivo", "settings": "CL2006 worms overexpressing human Aβ, vs DMSO controls", "experimental": "(§1) To determine the FFAR2 signal activating property of selected compounds, SK-N-SH cells were treated with 10 μM of shortlisted compounds for 30 min at 37° C. and harvested for total protein extraction. Cells were harvested after 30 min of incubation because ERK1/2 phosphorylation upon FFAR2 activation is a quick event (Jiao et al., 2002; Bhattacharjee et al., 2010). Total protein from the cells was extracted using a lysis buffer [consisting of 10 mmol/L Tris (pH 7.6), 150 mmol/L NaCl, 10 mmol/L Sodium orthovanadate, 10 mmol/L Sodium Pyrophosphate, 100 mmol/L Sodium fluoride, 1 mmol/L EDTA, 1 mmol/L EGTA, 1% Triton X-100, 0.5% NP-40 and a cocktail of protease inhibitors (Roche); Yadav et al., 2011, 2017; Ahmadi et al., 2019, 2020a]. After sonication, cell extracts were centrifuged at 8,000×g for 10 min at 4° C., and the supernatant was separated in a fresh tube. The total protein concentration of the supernatant was measured using a BCA protein assay kit. […] Band densities were also quantified using NIH ImageJ software. β-actin was used as an internal control.\nThen, the worm bodies were permeabilized in 1% Triton X-100, 125 mM Tris (pH 7.4), and 5% fresh β-mercaptoethanol. […] A total of 20 worms were counted from each group."}, "C. elegans": {"system": "C. elegans", "assay": "Lifespan assay in C. elegans", "format": "in vivo", "settings": "10 μM", "experimental": "C. elegans was used as a model for determining the impact of selected compounds on aging and AD-like phenotypes. The wild-type (N2) and CL2122 (dvls15 [9pPD30.38) unc-54(vector)+(pCL26)mtl-2::GFP]) were propagated at 20° C. AD transgenic worms model CL2006 (dvls [pCL12(unc-54/human abeta peptide 1-42 minigene)+pRF4), CL4176 (dvls27[myo-3p::A-Beta (1-42)::let-851 3tUTR)+rol-6 (su1006] and CL2355 (dvls 50 [pCL45 9snb-1::Abeta 1-42::3t UTR 9 log)+mtl-2::GFP]) were maintained at 16° C. All strains were cultured on solid nematode growth medium (NGM) consisting of 3 g/L NaCl, 2.5 g/L peptone, 5 mg/L cholesterol, 1 mM CaCl2), 1 mM MgSO4, 25 mM KH2PO4, and 17 g/L agar and seeded with OP50 (Escherichia coli strain) as a food supply. The worms were allowed to grow up to the adult stage, and egg carrying worms were used to isolate age-synchronized eggs using the bleaching method (Porta-de-la-Riva et al., 2012). […] (N2 and CL2122) or 16° C. (CL2006, CL4176, and CL2355). All of the strains used were acquired from the University of Minnesota-Caenorhabditis Genetics Center, which is funded by the NIH Office of Research Infrastructure Programs (P40 OD010440).\nTo determine the impact of selected compounds on age related decline in brain health, the lifespan of the worms was first measured. The L1 worms were cultured in 96-well plates on S-complete media containing E. coli OP50 and antibiotics (about 10-15 animals per well). […] The 0.6 mM Fluorodeoxyuridine (FUDR; 30 μl) was added to each well after 3 days and animals were monitored every other day for viability. The CL4176 and CL2006 worms were grown at 16° C. and N2 worms were grown at 20° C."}, "SK-N-SH cells": {"system": "SK-N-SH cells", "assay": "Total protein ubiquitination, western blot (P4D1)", "format": "cell-based, human", "experimental": "as §1"}, "C. elegans CL4176": {"system": "C. elegans CL4176", "assay": "Paralysis assay in C. elegans CL4176", "format": "in vivo", "settings": "CL4176 worms, 10 μM, vs non-treated controls", "experimental": "For paralysis assays, synchronized eggs of CL4176 were kept at 16° C. for 48 h, and the worms were transferred onto NGM plates. […] Counting was performed at 2 h intervals, typically after 14 h, at 23° C., and until the last worm became paralyzed. […] Each C. elegans experiment was conducted with at least 100 worms."}, "[2]": {"system": "C. elegans CL2355 and CL2122", "assay": "Chemotaxis activity in C. elegans", "format": "in vivo", "settings": "10 μg/ml", "experimental": "Then the worms were washed twice with S-Basal media and transferred to an NGM plate without E. coli OP50. These plates were divided into four equal sectors, with 1 μl of 0.1% benzaldehyde as an odorant and 1 μl of 1 M sodium azide as an anesthetic to arrest the worms upon reaching the quadrant were added to the original spot. On the opposite side of the attractant, a 1 μl drop of sodium azide and 1 μl of control odorant (100% ethanol) were added onto the NGM agar plate. Around 40-45 worms were placed in the center of each plate, incubated at room temperature for 1 h, and transferred to 4° C. overnight. The chemotaxis index (CI) was scored using the following formula: (number of worms at the attractant location […])/total number of worms on the plate ([…] et al., 2013)."}, "proteasome": {"system": "proteasome", "assay": "Proteasome activity assay in SK-N-SH cells", "format": "cell-based, human", "experimental": "The CL2006 strain, SK-N-SH cells, and brain tissues were sonicated in a lysis buffer (150 mM NaCl, 50 mM HEPES, 2 mM DTT, 20 mM NaF, 5 mM EDTA, 2.5 mM sodium pyrophosphate, 1 mM sodium orthovanadate, and 1 mM α-glycerophosphoric acid) and then centrifuged at 15,000 g at 4° C. for 15 min. Total protein was assayed using BCA kit and 20 μg protein was mixed with 140 μM suc-leu-leu-val-tyr-7-amino-4-methylcou-marin (AMC) in a proteasome activity assay buffer (150 mM NaCl, 50 mM HEPES [pH 7.4], 5 mM ATP, and 5 mM EDTA), and then the fluorescence (excitation 380 nm and emission 460 nm) was measured every 10 min over 3 h using a microplate reader. The assay was performed with and without the proteasome inhibitor MG132 (10 μM)."}},
  "note": "Entries after “also recorded” stand apart in the source; their conditions may differ.",
  "data": [
    {"smiles": "CC12CCC(C1)C(C)(C)C2O", "note": "(stereo not shown) [Fenchol]", "values": [
      {"measurement": "Aβ accumulation", "setting": "[1]", "value": "significantly reduced"},
      {"measurement": "survival/lifespan", "setting": "C. elegans; CL2006 worms overexpressing human Aβ", "value": "significantly increased"},
      {"measurement": "survival/lifespan", "setting": "C. elegans; CL4176 worms overexpressing human Aβ", "value": "significantly increased"},
      {"measurement": "lifespan", "setting": "C. elegans; wild-type N2 worms", "value": "no significant impacts"},
      {"measurement": "protein ubiquitinylation", "setting": "SK-N-SH cells", "value": "did not change"},
      {"measurement": "paralytic attacks", "setting": "C. elegans CL4176", "value": "decreased"},
      {"measurement": "memory behavior / chemotaxis index", "setting": "[2]; CL2355 worms overexpressing human Aβ", "value": "significantly higher; also recorded: preserved"},
      {"measurement": "chemotaxis index", "setting": "[2]; control CL2122 strain", "value": "normal effects"},
      {"measurement": "proteasomal activity", "setting": "proteasome", "value": "significantly increased"},
      {"measurement": "proteasome activity in cells also treated with Aβ", "setting": "proteasome; Fenchol plus Aβ", "value": "higher"}
    ]}
  ]
}
